Measurements reported in publication PMC7187165, “Structure‐Based Design, Synthesis, and Biological Evaluation of Triazole‐Based smHDAC8 Inhibitors” (Chemmedchem, 2020).
Several values for one entry are separate records, joined by “and”; a condition that tells them apart may be missing. Equal values may be shown once. Read-outs that look alike come from different tables or passages of the source. One block for each compound: values may come before it.

Columns and labels:
[1] = target: T1, smHDAC8 (Schistosoma mansoni, UniProt A5H660); assay: biochemical; format: biochemical; conditions: for inhibition at 5 µM / inhibition at 50 µM: pretest; for inhibition at 5 µM: read-out: smHDAC8 % inhibition @ 5 μM (Fluor de Lys); for inhibition at 50 µM: read-out: smHDAC8 % inhibition @ 50 μM (Fluor de Lys); for inhibition at 10 µM: read-out: smHDAC8 (% inhibition, Fluor de Lys)
T1 construct: made in house; host or cells: E. coli
T1 sequence (A5H660 1-440): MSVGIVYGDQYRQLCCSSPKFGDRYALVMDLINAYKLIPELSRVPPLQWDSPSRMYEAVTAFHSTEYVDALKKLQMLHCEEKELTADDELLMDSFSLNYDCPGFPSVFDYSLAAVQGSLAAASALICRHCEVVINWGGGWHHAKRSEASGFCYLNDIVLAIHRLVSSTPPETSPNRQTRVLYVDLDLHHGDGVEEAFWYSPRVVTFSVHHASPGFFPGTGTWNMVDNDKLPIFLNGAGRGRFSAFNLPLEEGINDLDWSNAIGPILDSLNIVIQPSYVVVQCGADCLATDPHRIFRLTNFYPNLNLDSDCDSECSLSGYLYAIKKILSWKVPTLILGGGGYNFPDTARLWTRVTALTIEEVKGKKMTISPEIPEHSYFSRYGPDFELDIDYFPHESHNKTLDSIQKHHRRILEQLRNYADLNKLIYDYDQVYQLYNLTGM

[2] = test system: S. mansoni larvae (schistosomula); assay: Schistosome viability testing, resazurin-based fluorescence assay; format: cell-based, Schistosoma mansoni
Method: Selected compounds (Table 4) were tested for their effects on the viability of S. mansoni larvae (schistosomula) using a resazurin‐based fluorescence assay that measures mitochondrial activity. Assays were carried out in triplicate on two separate batches of schistosomula and the results are expressed as the percentage of the value obtained with the solvent (DMSO). Initial testing was done at 10 μM as part of a high‐throughput screening procedure and compounds provoking at least a 25 % reduction in viability were tested at 20 μM to determine a dose‐response. […] However, the level of reduction obtained was mediocre and this compound was not considered for further testing. […] A variety of schistosome viability assays are currently used in the field [e. g. […] However, since we have compared compounds that a priori have the same biological target, it is unlikely that they will have different effects on the parasite and that a different viability assay, for example based on morphological characteristics,52 would give different results. Nevertheless, in view of the potency of the triazole‐based smHDAC8 inhibitors on the enzyme, their further development, aimed at improving their bioavailability, is justified.
Schistosome viability testing: The resazurin‐based assay to determine the effects of novel inhibitors targeting smHDAC8 on the viability of S. mansoni schistosomula was carried out exactly as previously described.27, 62 Briefly, newly transformed schistosomula (NTS) were obtained in vitro as previously described63 by mechanical transformation of S. mansoni cercaria. A suspension of NTS was prepared at a concentration of 100 per 100 μL using Medium 199 (Invitrogen) supplemented with 10 % fetal calf serum (Gibco), penicillin (50 U×mL^−1), streptomycin (50 μg×mL^−1), and rifampicin (60 μg×mL^−1). Schistosomula were kept in culture for 3 h at 37 °C and 5 % CO2 prior to use in screening. Drug stock solutions of 20 mM in DMSO were used. Mid‐dilutions were performed in 100 % DMSO and 1 μL added to 100 μL/well of M199 medium in black 96 well plates (Nunc, UK) with supplemented Medium 199 and 100 μL of the prepared NTS suspension (100 NTS/well). Live and dead schistosomula (treated with 70 % ethanol) were used as positive and negative controls. Experiments were carried out in triplicate wells in two biological replicates and the compounds were tested at final concentrations of 10 and 20 μM. After 48 h of drug exposure, 20 μL of resazurin solution (Abd Serotec) were added to each well. Finally, after 72 h of exposure, the fluorescence intensity of the highly red fluorescent resorufin product was measured using an excitation wavelength of 530 nm and an emission wavelength of 590 nm in an Infinite M200 Pro microplate reader (TECAN). Background fluorescence of the drug containing medium were determined for each drug dilution using wells containing only DMSO as control.

[3] = target: T2, hsHDAC6 (Homo sapiens, UniProt Q9UBN7); assay: In vitro hsHDAC6 inhibition (ZMAL substrate, trypsin developer); format: biochemical; conditions: for IC50: n=2, mean ± S.E.M.
T2 sequence (Q9UBN7 1-1215): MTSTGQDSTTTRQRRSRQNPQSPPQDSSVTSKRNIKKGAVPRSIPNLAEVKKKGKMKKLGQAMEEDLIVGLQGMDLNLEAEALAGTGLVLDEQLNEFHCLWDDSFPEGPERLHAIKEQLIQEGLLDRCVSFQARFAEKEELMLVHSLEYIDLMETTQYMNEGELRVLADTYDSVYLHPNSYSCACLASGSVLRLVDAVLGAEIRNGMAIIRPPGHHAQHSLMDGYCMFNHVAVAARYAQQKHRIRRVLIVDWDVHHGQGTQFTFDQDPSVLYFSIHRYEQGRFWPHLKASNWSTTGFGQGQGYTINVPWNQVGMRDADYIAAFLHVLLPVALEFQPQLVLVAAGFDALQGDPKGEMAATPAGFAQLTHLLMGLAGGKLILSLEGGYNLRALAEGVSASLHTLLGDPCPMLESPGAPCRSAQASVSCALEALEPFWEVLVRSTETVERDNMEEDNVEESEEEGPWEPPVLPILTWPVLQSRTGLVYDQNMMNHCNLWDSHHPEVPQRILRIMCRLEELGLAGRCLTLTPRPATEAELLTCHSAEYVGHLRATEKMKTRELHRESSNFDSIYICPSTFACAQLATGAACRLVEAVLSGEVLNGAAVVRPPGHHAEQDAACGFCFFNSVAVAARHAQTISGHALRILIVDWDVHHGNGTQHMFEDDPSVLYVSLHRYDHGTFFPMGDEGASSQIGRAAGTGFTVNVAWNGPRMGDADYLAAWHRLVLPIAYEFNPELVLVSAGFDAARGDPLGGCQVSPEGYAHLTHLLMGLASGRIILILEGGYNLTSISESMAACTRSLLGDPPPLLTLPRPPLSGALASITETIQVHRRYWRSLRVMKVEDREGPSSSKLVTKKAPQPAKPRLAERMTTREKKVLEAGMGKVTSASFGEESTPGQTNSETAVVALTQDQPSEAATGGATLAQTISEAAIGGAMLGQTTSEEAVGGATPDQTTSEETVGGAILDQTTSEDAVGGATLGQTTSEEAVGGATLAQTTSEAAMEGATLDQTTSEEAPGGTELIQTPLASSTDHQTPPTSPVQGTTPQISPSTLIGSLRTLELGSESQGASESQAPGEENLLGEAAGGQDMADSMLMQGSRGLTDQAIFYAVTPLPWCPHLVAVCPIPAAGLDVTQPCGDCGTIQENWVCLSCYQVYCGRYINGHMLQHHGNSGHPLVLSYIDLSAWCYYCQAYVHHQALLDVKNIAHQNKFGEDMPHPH

[4] = target: T3, hsHDAC1 (Homo sapiens, UniProt Q13547); assay: In vitro hsHDAC1 inhibition (ZMAL substrate, trypsin developer); format: biochemical; conditions: for inhibition at 10 µM: read-out: hsHDAC1 (% inhibition, ZMAL)
T3 sequence (Q13547 whole entry): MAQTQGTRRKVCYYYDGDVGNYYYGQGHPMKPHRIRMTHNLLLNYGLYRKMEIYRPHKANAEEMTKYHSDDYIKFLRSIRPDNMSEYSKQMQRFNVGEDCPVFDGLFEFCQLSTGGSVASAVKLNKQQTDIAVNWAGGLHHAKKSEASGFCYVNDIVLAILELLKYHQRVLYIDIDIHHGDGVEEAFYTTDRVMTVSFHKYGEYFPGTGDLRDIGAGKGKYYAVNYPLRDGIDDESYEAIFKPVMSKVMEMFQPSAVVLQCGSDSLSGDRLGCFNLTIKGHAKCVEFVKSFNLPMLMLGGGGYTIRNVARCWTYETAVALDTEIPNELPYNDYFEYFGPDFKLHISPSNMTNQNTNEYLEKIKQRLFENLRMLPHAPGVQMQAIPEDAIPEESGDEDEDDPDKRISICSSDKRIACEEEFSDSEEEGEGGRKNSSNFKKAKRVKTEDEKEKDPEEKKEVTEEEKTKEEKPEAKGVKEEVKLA

[5] = target: T4, hsHDAC8 (Homo sapiens, UniProt Q9BY41); assay: In vitro hsHDAC8 inhibition, homogeneous fluorescence assay (Fluor de Lys substrate); format: biochemical; conditions: n=2; mean ± S.E.M.
T4 construct: made in house
T4 sequence (Q9BY41 1-377): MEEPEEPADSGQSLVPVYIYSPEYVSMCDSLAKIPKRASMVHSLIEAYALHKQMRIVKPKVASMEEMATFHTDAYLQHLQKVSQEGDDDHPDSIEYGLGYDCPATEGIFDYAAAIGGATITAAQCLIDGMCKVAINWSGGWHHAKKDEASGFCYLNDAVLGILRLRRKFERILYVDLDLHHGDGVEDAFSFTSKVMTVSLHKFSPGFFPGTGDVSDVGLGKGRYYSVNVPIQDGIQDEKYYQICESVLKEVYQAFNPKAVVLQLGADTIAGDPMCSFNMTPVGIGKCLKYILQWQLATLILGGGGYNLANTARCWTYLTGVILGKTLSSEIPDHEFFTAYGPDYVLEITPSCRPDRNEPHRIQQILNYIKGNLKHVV

[6] = target: T3, hsHDAC1; parameters: method as in PMID 19007204; conditions: cited from earlier work
[7] = target: T4, hsHDAC8; parameters: method as in PMID 19007204; conditions: cited from earlier work
[8] = Schistosoma mansoni, 72 h, read-out: % viability of S. mansoni schistosomula

Compound: O=C(NO)c1cn(-c2ccccc2)nn1 [Compound 2 b, N ‐Hydroxy‐1‐phenyl‐1H‐1,2,3‐triazole‐4‐carboxamide]
viability at 10 µM [2, 8]: 92.5%
IC50 [3]: 42.5 ± 3.64 µM
inhibition at 10 µM [4]: 8.1 ± 1%
IC50 [5]: 12.4 ± 1.08 µM
IC50 [1]: 4.44 ± 1.52 µM
inhibition at 10 µM ([1]; @ 10 μM, pretest n=1): 57.9%

Compound: O=C(NO)c1cn(Cc2ccc(C(F)(F)F)cc2)nn1 [Compound 2 e]
inhibition at 10 µM [3]: 2.2 ± 0.5%
inhibition at 10 µM [4]: 3.3 ± 2.5%
IC50 [5]: 3.47 ± 0.53 µM
melting point: 192 °C
IC50 [1]: 5.12 ± 0.64 µM
inhibition at 10 µM ([1]; @ 10 μM, pretest n=1): 52.5%

Compound: Cl.O=C(NO)c1cn(-c2ccc(C#Cc3ccc(CN4CCOCC4)cc3)cc2)nn1 [Compound 2 i]
melting point: 239 °C (dec.)
inhibition at 10 µM ([1]; @ 10 μM, pretest n=1): 48%

Compound: O=C(NO)c1cn(Cc2ccc(F)cc2)nn1 [Compound 2 d]
inhibition at 10 µM ([1]; @ 10 μM, pretest n=1): 36.1%

Compound: O=C(NO)c1cn(-c2ccc(C#CC#Cc3ccccc3)cc2)nn1 [Compound 2 j, N ‐Hydroxy‐1‐[4‐(4‐phenylbuta‐1,3‐diynyl)phenyl]‐1H‐1,2,3‐triazole‐4‐carboxamide]
smHDAC8 (% inhibition, Fluor de Lys) ([1]; @ 10 μM, pretest n=1): nearly no inhibitory activity
inhibition at 10 µM ([1]; @ 10 μM, pretest n=1): 6.8%

Compound: O=C(NO)c1cn(CCCc2ccccc2)nn1 [Compound 2 g]
inhibition of hsHDAC1 (in words) [6]: weakly inhibit
IC50 [3]: 31.8 ± 6.18 µM
inhibition at 10 µM [4]: 5.4 ± 7%
IC50 [5]: 5.37 ± 0.68 µM
inhibition of hsHDAC8 (in words) [7]: weakly inhibit
melting point: 182 °C
IC50 [1]: 8.81 ± 1.89 µM
inhibition at 10 µM ([1]; @ 10 μM, pretest n=1): 50.5%

Compound: O=C(NO)c1cn(Cc2ccccc2)nn1 [Compound 2 c]
inhibition of hsHDAC1 (in words) [6]: weakly inhibit
inhibition of hsHDAC8 (in words) [7]: weakly inhibit
melting point: 183 °C
inhibition at 10 µM ([1]; @ 10 μM, pretest n=1): 39.6%

Compound: O=C(NO)c1cn(CCc2ccccc2)nn1 [Compound 2 f]
inhibition of hsHDAC1 (in words) [6]: weakly inhibit
inhibition at 10 µM [3]: 12.6 ± 9.6%
inhibition at 10 µM [4]: 1.7 ± 3.4%
IC50 [5]: 5.54 ± 0.64 µM
inhibition of hsHDAC8 (in words) [7]: weakly inhibit
melting point: 178 °C
IC50 [1]: 10.7 ± 1.88 µM
inhibition at 10 µM ([1]; @ 10 μM, pretest n=1): 49.5%

The next lines start with results.

inhibition at 5 µM [1]: 23.4%
inhibition at 50 µM [1]: 75.4%
Compound: O=C(NO)c1cn(-c2ccccc2C(=O)c2ccccc2)nn1 [Compound 32, 1‐(2‐Benzoylphenyl)‐N‐hydroxy‐1H‐1,2,3‐triazole‐4‐carboxamide]

inhibition at 50 µM [1]: 43.5%
Compound: O=C(NO)c1cn(-c2cc(Cl)ccc2OCc2ccc3ccccc3c2)nn1 [Compound 16]

inhibition at 5 µM [1]: 49.1%
inhibition at 50 µM [1]: 87.9%
Compound: O=C(NO)c1cn(-c2ccccc2Oc2ccccc2)nn1 [Compound 28]

inhibition at 50 µM [1]: 21%
Compound: O=C(NO)c1cn(-c2cc(Cl)ccc2OCc2ccc(I)cc2)nn1 [Compound 17, 1‐{5‐Chloro‐2‐[(4‐iodobenzyl)oxy]phenyl}‐N‐hydroxy‐1H‐1,2,3‐triazole‐4‐carboxamide]

inhibition at 5 µM [1]: 14.5%
inhibition at 50 µM [1]: 67.3%
Compound: O=C(NO)c1cn(-c2cc(Cl)ccc2O)nn1 [Compound 13, 1‐(5‐Chloro‐2‐hydroxyphenyl)‐N‐hydroxy‐1H‐1,2,3‐triazole‐4‐carboxamide]

inhibition at 5 µM [1]: 19.5%
inhibition at 50 µM [1]: 63.5%
Compound: O=C(NO)c1cn(-c2ccccc2O)nn1 [Compound 12]

inhibition at 5 µM [1]: 49.8%
inhibition at 50 µM [1]: 91.1%
Compound: Cc1ccc(Oc2ccc(Cl)cc2-n2cc(C(=O)NO)nn2)cc1 [Compound 20]

inhibition at 5 µM [1]: 51.4%
inhibition at 50 µM [1]: 91.5%
Compound: O=C(NO)c1cn(-c2cc(Cl)ccc2Oc2ccccc2)nn1 [Compound 29, 1‐(5‐Chloro‐2‐phenoxyphenyl)‐N‐hydroxy‐1H‐1,2,3‐triazole‐4‐carboxamide]
viability at 10 µM [2, 8]: 64.2%
viability at 20 µM [2, 8]: 49.9%
reduction in viability of schistosomula (in words) ([2]; at 10 and 20 μM): significant reduction in viability

inhibition at 5 µM ([3]; @ 5 μM): -1.5%
inhibition at 50 µM ([3]; @ 50 μM): 34.5%
inhibition at 5 µM ([4]; @ 5 μM): 11%
inhibition at 50 µM ([4]; @ 50 μM): 38.2%
IC50 [5]: 2.2 ± 0.68 µM
inhibition at 5 µM [1]: 66.2%
inhibition at 50 µM [1]: 93.4%
IC50 ([1]; n=2, mean ± S.E.M., read-out: smHDAC8 IC50 (Fluor de Lys)): 0.5 µM and 0.504 µM
Compound: O=C(NO)c1cn(-c2cc(Cl)ccc2Oc2ccc(F)cc2)nn1 [Compound 21, 1‐[5‐Chloro‐2‐(4‐fluorophenoxy)phenyl]‐N‐hydroxy‐1H‐1,2,3‐triazole‐4‐carboxamide]
viability at 10 µM [2, 8]: 82%
